Columns and labels:
[1] = system: primary rat neonatal cardiomyocytes; experiment: Immunofluorescence / morphology of cardiomyocyte hypertrophy in NRVM; format: cell-based; conditions: 1 μM, 48 h
Description: NRVM culture. For preparations of neonatal rat ventricular myocytes (NRVMs), hearts were removed from 10-20 newborn (1-2 days old) Sprague-Dawley rats. Isolated ventricles were pooled, minced and dispersed by three 20-min incubations at 37° C. in Ads buffer (116 mM NaCl, 20 mM HEPES, 10 mM NaH2PO4, 5.5 mM glucose, 5 mM KCl, 0.8 mM MgSO4, pH 7.4) containing collagenase Type II (65 units/ml, Worthington) and pancreatin (0.6 mg/ml, GibcoBRL). Dispersed cells were applied to a discontinuous gradient of 40.5% and 58.5% (v/v) Percoll (Amersham Biosciences), centrifuged, and myocytes collected from the interface layer. Myocyte preparations were pre-plated in Dulbecco's modified Eagle's medium (DMEM, Cellgro), supplemented with 10% (v/v) fetal bovine serum (FBS, HyClone), 4 mM L-glutamine and 1% penicillin/streptomycin for 1 hour at 37° C. to reduce fibroblast contamination, then plated at a density of 2.5×10^5 cells per well on 6-well tissue culture plates (or 10,000 cells/well on 96-well tissue culture plates) coated with a 0.2% (w/v) gelatin solution. After 24 hours in culture, myocyte preparations were transferred to serum-free maintenance medium (DMEM supplemented with 0.1% (v/v) Nutridoma (Roche), L-glutamine and penicillin/streptomycin). Where indicated, NRVM were treated with test compounds for a period of 48 h. […]

5-HT2B = target: T1, 5-HT2B (Homo sapiens, UniProt P41595); experiment: Radioligand receptor binding assay (MDS Pharma); conditions: 10 μM compound, n=2
T1 construct: purchased MDS Pharma services 271700
Description: (§1) Receptor binding assays. Receptor binding assays were performed by MDS Pharma services. Assays included: Adenosine A1 (cat# 200510), Adenosine A2A (cat# 200610), Adenosine A3 (cat# 200720), Adrenergic alpha 1 (cat# 203500), Imidazoline 12 central (cat# 241000), Imidazoline I2 peripheral (cat# 241100), Inositol triphosphate (cat# 242500), Phorbol Ester (cat# 264500), 5-HT 2B (cat# 271700), and 5-HT 4 (cat# 272000).
(§2) • Summary of radioligand binding assays for 11 receptors. Data represent % inhibition of ligand binding in the presence of 10 μM 18264 (n=2).
(§3) • Summary of radioligand binding assays for three receptors. Data represent % inhibition of ligand binding in the presence of 10 μM 20068 (n=2).

[2] = system: Imidazoline I2, peripheral; experiment: Radioligand receptor binding assay (MDS Pharma); conditions: 10 μM compound, n=2
Description: as §1, §2

Adenosine A1 = target: T2, Adenosine A1 (Homo sapiens, UniProt P30542); experiment: Radioligand receptor binding assay (MDS Pharma); conditions: 10 μM compound, n=2
T2 construct: purchased MDS Pharma services 200510
T2 sequence (P30542 1-326): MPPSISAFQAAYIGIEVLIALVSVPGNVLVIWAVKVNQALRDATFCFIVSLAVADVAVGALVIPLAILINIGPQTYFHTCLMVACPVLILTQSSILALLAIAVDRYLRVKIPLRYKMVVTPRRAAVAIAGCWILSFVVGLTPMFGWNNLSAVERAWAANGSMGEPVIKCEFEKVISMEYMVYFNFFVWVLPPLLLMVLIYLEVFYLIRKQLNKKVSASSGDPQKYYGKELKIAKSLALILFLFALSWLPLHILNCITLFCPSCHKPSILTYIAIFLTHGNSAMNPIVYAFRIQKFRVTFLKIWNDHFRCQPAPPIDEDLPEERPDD
Description: as §1, §2

Adenosine A3 = target: T3, Adenosine A3 (Homo sapiens, UniProt P0DMS8); experiment: Radioligand receptor binding assay (MDS Pharma); conditions: 10 μM compound, n=2
T3 construct: purchased MDS Pharma services 200720
T3 sequence (P0DMS8 1-318): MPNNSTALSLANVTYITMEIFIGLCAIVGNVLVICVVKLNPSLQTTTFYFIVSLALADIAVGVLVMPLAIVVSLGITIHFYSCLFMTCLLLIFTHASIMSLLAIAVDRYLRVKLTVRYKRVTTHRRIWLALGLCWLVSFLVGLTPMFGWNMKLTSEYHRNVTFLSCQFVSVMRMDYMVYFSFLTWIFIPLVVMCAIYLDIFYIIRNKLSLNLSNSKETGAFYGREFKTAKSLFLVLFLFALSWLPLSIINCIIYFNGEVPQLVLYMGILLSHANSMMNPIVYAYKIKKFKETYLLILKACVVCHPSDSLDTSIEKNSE
Description: as §1, §2

Imidazoline I2, central = experiment: Radioligand receptor binding assay (MDS Pharma); conditions: 10 μM compound, n=2
Description: as §1, §2

Phorbol Ester = experiment: Radioligand receptor binding assay (MDS Pharma); conditions: 10 μM compound, n=2
Description: as §1, §2

[3] = target: T4, Inositol Triphosphate IP3 (Rattus norvegicus, UniProt P29994); experiment: Radioligand receptor binding assay (MDS Pharma); conditions: 10 μM compound, n=2
T4 construct: purchased MDS Pharma services 242500
Description: as §1, §2

Adrenergic alpha 1 = experiment: Radioligand receptor binding assay (MDS Pharma); conditions: 10 μM compound, n=2
Description: as §1, §2

Adenosine A2A = target: T5, Adenosine A2A (Homo sapiens, UniProt P29274); experiment: Radioligand receptor binding assay (MDS Pharma); conditions: 10 μM compound, n=2
T5 construct: purchased MDS Pharma services 200610
Description: as §1, §2

5-HT4 = target: T6, 5-HT4 (Cavia porcellus, UniProt O70528); experiment: Radioligand receptor binding assay (MDS Pharma)
T6 construct: purchased MDS Pharma services 272000
Description: as §1, §2

5-HT1 = experiment: Radioligand receptor binding assay
Description: as §1, §2, §3

HDAC5 = experiment: HDAC localization assay, GFP-HDAC5 in NRVM; format: cell-based, rat; conditions: NRVM, two hours; 18264 1 μM, PE 20 μM
Description: NRVM culture. For preparations of neonatal rat ventricular myocytes (NRVMs), hearts were removed from 10-20 newborn (1-2 days old) Sprague-Dawley rats. Isolated ventricles were pooled, minced and dispersed by three 20-min incubations at 37° C. in Ads buffer (116 mM NaCl, 20 mM HEPES, 10 mM NaH2PO4, 5.5 mM glucose, 5 mM KCl, 0.8 mM MgSO4, pH 7.4) containing collagenase Type II (65 units/ml, Worthington) and pancreatin (0.6 mg/ml, GibcoBRL). Dispersed cells were applied to a discontinuous gradient of 40.5% and 58.5% (v/v) Percoll (Amersham Biosciences), centrifuged, and myocytes collected from the interface layer. Myocyte preparations were pre-plated in Dulbecco's modified Eagle's medium (DMEM, Cellgro), supplemented with 10% (v/v) fetal bovine serum (FBS, HyClone), 4 mM L-glutamine and 1% penicillin/streptomycin for 1 hour at 37° C. to reduce fibroblast contamination, then plated at a density of 2.5×10^5 cells per well on 6-well tissue culture plates (or 10,000 cells/well on 96-well tissue culture plates) coated with a 0.2% (w/v) gelatin solution. After 24 hours in culture, myocyte preparations were transferred to serum-free maintenance medium (DMEM supplemented with 0.1% (v/v) Nutridoma (Roche), L-glutamine and penicillin/streptomycin). Where indicated, NRVM were treated with test compounds for a period of 48 h. For immunofluorescence applications, NRVM cultures were fixed, incubated with primary antibodies against alpha skeletal actin and atrial natriuretic factor, then incubated with rhodamine- or flurorescein-conjugated secondary antibodies. For HDAC localization assays, NRVM were plated to clear bottomed 96-well plates and infected overnight with recombinant adenovirus encoding HDAC5 fused to green fluorescent protein (multiplicity of infection=50). The next day, medium was replaced with serum-free maintenance medium for 4 hours, and test compounds added. After two hours, NRVM were fixed and imaged by fluorescent microscopy.

T6 sequence (O70528 whole entry): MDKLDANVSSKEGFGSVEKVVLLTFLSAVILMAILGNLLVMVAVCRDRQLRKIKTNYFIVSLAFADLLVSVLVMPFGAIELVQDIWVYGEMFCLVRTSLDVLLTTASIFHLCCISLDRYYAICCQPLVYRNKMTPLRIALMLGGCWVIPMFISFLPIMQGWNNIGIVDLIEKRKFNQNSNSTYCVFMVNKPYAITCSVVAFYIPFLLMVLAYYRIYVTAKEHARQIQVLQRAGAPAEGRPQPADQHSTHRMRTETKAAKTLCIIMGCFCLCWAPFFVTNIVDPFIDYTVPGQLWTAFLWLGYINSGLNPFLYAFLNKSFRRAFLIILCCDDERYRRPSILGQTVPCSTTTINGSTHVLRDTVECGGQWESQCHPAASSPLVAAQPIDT
T4 sequence (P29994 whole entry): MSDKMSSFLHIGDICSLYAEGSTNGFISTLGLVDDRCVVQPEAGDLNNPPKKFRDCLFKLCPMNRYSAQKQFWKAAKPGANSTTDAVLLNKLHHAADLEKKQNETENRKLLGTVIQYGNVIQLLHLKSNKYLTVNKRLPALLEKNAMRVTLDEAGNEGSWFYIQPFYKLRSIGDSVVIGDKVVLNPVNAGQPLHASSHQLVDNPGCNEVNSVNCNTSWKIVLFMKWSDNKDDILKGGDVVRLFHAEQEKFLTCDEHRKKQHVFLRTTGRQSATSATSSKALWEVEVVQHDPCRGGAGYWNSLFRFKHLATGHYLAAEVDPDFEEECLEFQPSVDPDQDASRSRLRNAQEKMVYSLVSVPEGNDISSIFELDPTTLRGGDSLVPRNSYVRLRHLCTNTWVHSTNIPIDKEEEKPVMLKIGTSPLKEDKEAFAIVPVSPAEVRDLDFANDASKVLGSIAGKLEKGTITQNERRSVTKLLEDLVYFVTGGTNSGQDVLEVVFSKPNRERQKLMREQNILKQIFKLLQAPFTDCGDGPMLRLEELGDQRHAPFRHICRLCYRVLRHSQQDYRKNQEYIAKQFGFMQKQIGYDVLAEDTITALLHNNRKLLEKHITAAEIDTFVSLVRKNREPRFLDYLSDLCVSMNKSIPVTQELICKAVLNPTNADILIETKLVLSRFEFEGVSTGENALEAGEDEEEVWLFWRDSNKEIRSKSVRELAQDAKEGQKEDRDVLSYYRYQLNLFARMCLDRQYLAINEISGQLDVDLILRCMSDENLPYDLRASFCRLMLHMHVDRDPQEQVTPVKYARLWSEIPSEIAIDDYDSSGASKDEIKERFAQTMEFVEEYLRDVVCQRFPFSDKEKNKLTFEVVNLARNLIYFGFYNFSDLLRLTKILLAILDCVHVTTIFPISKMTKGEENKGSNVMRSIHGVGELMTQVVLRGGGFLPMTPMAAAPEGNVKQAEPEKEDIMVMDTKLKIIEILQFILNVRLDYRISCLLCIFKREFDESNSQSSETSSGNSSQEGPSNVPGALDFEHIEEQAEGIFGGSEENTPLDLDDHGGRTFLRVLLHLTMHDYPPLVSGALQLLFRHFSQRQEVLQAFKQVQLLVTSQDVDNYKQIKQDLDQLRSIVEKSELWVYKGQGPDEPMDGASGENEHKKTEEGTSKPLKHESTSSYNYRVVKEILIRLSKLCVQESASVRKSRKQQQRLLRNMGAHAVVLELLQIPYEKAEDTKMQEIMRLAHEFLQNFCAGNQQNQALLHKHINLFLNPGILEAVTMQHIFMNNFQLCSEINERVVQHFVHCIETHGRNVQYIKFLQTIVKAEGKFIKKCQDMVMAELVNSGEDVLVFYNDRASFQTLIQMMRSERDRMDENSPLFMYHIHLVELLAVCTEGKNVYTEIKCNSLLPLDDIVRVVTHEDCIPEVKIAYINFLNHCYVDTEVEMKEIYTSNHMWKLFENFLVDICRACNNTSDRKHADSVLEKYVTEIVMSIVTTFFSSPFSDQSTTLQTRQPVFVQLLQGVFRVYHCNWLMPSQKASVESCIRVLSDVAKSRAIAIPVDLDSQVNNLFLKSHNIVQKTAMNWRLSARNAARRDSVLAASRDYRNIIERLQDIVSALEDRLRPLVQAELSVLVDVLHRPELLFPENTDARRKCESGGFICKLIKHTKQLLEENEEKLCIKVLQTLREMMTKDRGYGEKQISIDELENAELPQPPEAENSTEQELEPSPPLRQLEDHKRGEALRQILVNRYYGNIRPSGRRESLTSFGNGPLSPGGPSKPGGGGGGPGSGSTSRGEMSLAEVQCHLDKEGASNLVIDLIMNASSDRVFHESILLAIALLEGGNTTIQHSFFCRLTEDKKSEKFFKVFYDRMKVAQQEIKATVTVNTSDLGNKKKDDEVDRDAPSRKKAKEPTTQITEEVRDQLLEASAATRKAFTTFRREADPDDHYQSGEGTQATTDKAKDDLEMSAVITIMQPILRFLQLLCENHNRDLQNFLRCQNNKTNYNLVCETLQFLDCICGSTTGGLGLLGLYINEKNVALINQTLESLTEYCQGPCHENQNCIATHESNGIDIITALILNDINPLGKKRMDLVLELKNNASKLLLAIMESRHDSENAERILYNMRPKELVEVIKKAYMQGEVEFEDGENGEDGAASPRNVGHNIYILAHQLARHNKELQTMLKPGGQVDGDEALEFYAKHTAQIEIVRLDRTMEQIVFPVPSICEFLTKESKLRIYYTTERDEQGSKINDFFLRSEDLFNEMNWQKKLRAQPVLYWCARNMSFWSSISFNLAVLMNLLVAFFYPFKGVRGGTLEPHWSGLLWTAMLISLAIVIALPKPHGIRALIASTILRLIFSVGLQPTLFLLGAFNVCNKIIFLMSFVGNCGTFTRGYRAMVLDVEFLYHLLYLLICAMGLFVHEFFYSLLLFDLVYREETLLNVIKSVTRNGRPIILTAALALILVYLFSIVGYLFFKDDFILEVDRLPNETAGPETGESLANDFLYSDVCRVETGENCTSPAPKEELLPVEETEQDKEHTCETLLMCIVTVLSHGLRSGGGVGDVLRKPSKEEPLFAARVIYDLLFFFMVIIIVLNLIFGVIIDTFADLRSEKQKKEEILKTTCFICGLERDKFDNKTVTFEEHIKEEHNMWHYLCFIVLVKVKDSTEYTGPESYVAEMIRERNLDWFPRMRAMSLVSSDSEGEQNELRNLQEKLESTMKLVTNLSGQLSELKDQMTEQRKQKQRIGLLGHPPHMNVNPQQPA
T5 sequence (P29274 whole entry): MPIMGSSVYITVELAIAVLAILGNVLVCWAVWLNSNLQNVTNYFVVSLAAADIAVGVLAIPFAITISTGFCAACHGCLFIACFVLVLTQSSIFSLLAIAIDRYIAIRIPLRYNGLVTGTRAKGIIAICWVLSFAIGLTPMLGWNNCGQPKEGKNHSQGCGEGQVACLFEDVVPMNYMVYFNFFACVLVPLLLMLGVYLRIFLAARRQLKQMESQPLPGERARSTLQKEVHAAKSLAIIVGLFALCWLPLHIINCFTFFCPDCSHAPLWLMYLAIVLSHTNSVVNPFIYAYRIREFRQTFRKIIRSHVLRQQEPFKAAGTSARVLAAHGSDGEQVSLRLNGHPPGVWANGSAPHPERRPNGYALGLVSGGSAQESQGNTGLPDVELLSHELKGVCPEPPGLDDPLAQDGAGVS
T1 sequence (P41595 whole entry): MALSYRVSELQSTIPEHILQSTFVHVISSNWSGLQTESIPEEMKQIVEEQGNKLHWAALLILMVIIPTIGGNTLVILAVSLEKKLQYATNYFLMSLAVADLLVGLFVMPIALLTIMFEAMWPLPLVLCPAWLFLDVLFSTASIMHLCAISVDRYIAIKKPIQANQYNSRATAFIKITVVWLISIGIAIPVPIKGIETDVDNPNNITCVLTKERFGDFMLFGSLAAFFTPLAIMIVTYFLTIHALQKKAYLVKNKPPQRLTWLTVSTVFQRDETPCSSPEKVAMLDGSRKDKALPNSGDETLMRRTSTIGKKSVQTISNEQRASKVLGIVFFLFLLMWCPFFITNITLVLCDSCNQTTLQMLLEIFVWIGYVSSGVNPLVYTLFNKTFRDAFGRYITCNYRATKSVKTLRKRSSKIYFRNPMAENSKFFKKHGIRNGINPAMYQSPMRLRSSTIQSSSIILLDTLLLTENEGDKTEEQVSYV

## Cc1c(-c2ccccc2)nc2sc3c(c2c1N)CCCC3 [Compound 18264, 3-Methyl-2-phenyl-5,6,7,8-tetrahydro-benzo[4,5]thieno[2,3-b]pyridin-4-ylamine]
[1]
  induction of myocyte hypertrophy (enlargement, sarcomere assembly): extraordinarily potent inducer of myocyte hypertrophy
5-HT2B
  inhibition at 10 µM: 97%
[2]
  % Inhibition of Binding: 4%
Adenosine A1
  inhibition at 10 µM: 17%
Adenosine A3
  inhibition at 10 µM: 24%
Imidazoline I2, central
  % Inhibition of Binding: 15%
Phorbol Ester
  % Inhibition of Binding: 2%
[3]
  inhibition at 10 µM: 3%
Adrenergic alpha 1
  % Inhibition of Binding: 17%
Adenosine A2A
  inhibition at 10 µM: 14%
5-HT4; 10 μM compound, n=2
  inhibition at 10 µM: 17%
5-HT4; radioligand binding, 10 μM
  binding (in words): No significant binding
5-HT1; 10 μM compound, n=2
  % Inhibition of Binding: −25%
5-HT1; radioligand binding, 10 μM
  binding (in words): No significant binding
HDAC5
  nuclear export of HDAC5-GFP: driven from the nucleus to the cytoplasm

From US20050265999A1, “Modulation of 5-HT2 receptors as a treatment for cardiovascular diseases” (Myogen, Inc., priority 2003, published 2005)
